Blank lines part the entries; values can stand above or below the molecule they belong to.
How the values were obtained:
Assay type in all cases: physicochemical
[1] = Hydrate screen on the HCl salt: solid form by XRPD in ethanol/water (effect of water on stability of Form I); conditions: for changes in XRPD in the hydrate screen: water/ethanol system
Procedure: (§1) XRPD patterns were collected at room temperature, using a PANalytical X'Pert MPD Pro Powder X-Ray Diffractometer configured with reflectance stage with spinning, data acquisition range: 2-40 degrees 2θ, Copper (Cu) anode; Kα1/Kα2 radiation; tube current 40 mA; tube tension 45 kV; automatic divergence and anti-scatter slits. Samples were prepared for analysis by distributing solid material as a thin layer on a silicon holder. Each holder was mounted on a reflectance/transmittance stage and rotated during data acquisition.
(§2) Polymorphic Form I of a hydrochloride salt of (S)-2-(1-(9H-purin-6-ylamino)propyl)-5-fluoro-3-phenylquinazolin-4(3H)-one, i.e., Compound of Formula (I), prepared according to the protocols described in Example 1 above was mixed with ethanol and water. XRPDs were taken on Days 5 and 21.

[2] = Hydrate screen on the HCl salt: solubility in ethanol/water; conditions: ethanol/water mixture, aqueous with cosolvent or surfactant or cyclodextrin, thermodynamic from solid; for solubility at 5 days: solubility column beside XRPD after 5 days
Source text: as §2

[3] = Dynamic vapour sorption (DVS); conditions: 25° C.
[4] = Form screen on the HCl salt: solid form by XRPD after suspension in solvent
Procedure: as §1, with “acquisition. […] After 7 days, a sample of the suspension was removed from the vial/flask, and the sample was centrifuged and filtered to separate the solids from the liquid in the sample. The isolated solids were characterized by XRPD (collected at room temperature). The filtrate was retained. After about 25 days, another sample was removed from the vial/flask, and the sample was centrifuged and filtered to separate the solids from the liquid in the sample. The isolated solids were characterized by XRPD (collected at room temperature).” for “acquisition.”

[5] = XRPD of solvate forms after drying or heating
Procedure: For Pattern 1, shown in FIGS. 14A and 15B, 50 mg of the hydrochloride salt of the Compound Formula (I) was suspended in propyl acetate (3.5 mL, 70 vol) and held at 50° C. for 15 minutes, after which 1.1 eq of 12M HCl (11.6 μL) was added and the sample slowly cooled from 50° C. to 5° C. at 0.1° C. per minute. The XRPD pattern shown in FIG. 14A was observed while the sample was wet. […] FIG. 14C depicts the XRPD pattern after further heating at about 145° C. for about 16 hours (Pattern 9′).
For the toluene solvate, shown in FIG. 20 (wet), 50 mg of the polymorphic Form I of a hydrochloride salt of the Compound of Formula (I) was treated with toluene (3.5 mL, 70 vols), producing a suspension at 50° C. This suspension was matured between 50° C. and room temperature (8 hours per cycle) for three days.

[6] = 114 mg in tetrahydrofuran (THF)
[7] = 117 mg in isopropyl acetate (IPAc)
[8] = 140 mg in ethyl acetate (EtOAc)
[9] = 149 mg in methyl ethyl ketone (MEK)
[10] = 150 mg in methyl t-butyl ether (MTBE)
[11] = 154 mg in 2-methyltetrahydrofuran (2-MeTHF)
[12] = 160 mg in dichloromethane (DCM)
[13] = 176 mg in methyl isobutyl ketone (MIBK)

- XRPD after 5 days ([1]; Ethanol/water aw 0.2): Form I
- XRPD after 21 days ([1]; Ethanol/water aw 0.2): Form I
- XRPD after 5 days ([1]; Ethanol/water aw 0.3): Form I
- XRPD after 21 days ([1]; Ethanol/water aw 0.3): Form I
- XRPD after 5 days ([1]; Ethanol/water aw 0.4): Form I
- XRPD after 21 days ([1]; Ethanol/water aw 0.4): Form I
- XRPD after 5 days ([1]; Ethanol/water aw 0.5): Form I
- XRPD after 21 days ([1]; Ethanol/water aw 0.5): Form I
- XRPD after 5 days ([1]; Ethanol/water aw 0.6): Form I
- XRPD after 21 days ([1]; Ethanol/water aw 0.6): Form I
- XRPD after 5 days ([1]; Ethanol/water aw 0.7): Form I
- XRPD after 21 days ([1]; Ethanol/water aw 0.7): Form I
- XRPD after 5 days ([1]; Ethanol/water aw 0.8): Form I
- XRPD after 21 days ([1]; Ethanol/water aw 0.8): Form I
- changes in XRPD in the hydrate screen ([1]; all water activities except 0.9): no changes in XRPD
- solubility at 21 days ([2]; Ethanol/water aw 0.2): 60 mg/mL
- solubility at 5 days ([2]; Ethanol/water aw 0.2): 26 mg/mL
- solubility at 21 days ([2]; Ethanol/water aw 0.3): 33 mg/mL
- solubility at 5 days ([2]; Ethanol/water aw 0.3): 47 mg/mL
- solubility at 21 days ([2]; Ethanol/water aw 0.4): 66 mg/mL
- solubility at 5 days ([2]; Ethanol/water aw 0.4): 57 mg/mL
- solubility at 21 days ([2]; Ethanol/water aw 0.5): 93 mg/mL
- solubility at 5 days ([2]; Ethanol/water aw 0.5): 72 mg/mL
- solubility at 21 days ([2]; Ethanol/water aw 0.6): 183 mg/mL
- solubility at 21 days ([2]; Ethanol/water aw 0.7): 223 mg/mL
- solubility at 21 days ([2]; Ethanol/water aw 0.8): 174 mg/mL
- solubility at 21 days ([2]; Ethanol/water aw 0.9): 44 mg/mL
- DVS: mass change as a function of RH [3]: minor mass increase
- XRPD after 7 days [4, 6]: new
- XRPD after about 25 [4, 6]: Form IX
- XRPD after 7 days [4, 7]: Form I
- XRPD after about 25 [4, 7]: Form I
- XRPD after 7 days ([4]; 119 mg in water): Form I
- XRPD after about 25 ([4]; 119 mg in water): Form I
- XRPD after 7 days ([4]; 120 mg in acetonitrile (ACN)): Form I
- XRPD after about 25 ([4]; 120 mg in acetonitrile (ACN)): Form I
- XRPD after 7 days ([4]; 125 mg in acetone): new
- XRPD after about 25 ([4]; 125 mg in acetone): Form X
- XRPD after 7 days ([4]; 132 mg in 2-propanol): Form I
- XRPD after about 25 ([4]; 132 mg in 2-propanol): mixture
- XRPD after 7 days [4, 8]: Form I
- XRPD after about 25 [4, 8]: Form I
- XRPD after 7 days [4, 9]: new
- XRPD after about 25 [4, 9]: Form VII
- XRPD after 7 days [4, 10]: Form I
- XRPD after about 25 [4, 10]: Form I
- XRPD after 7 days [4, 11]: Form V
- XRPD after about 25 [4, 11]: Form V
- XRPD after 7 days ([4]; 155 mg in methanol): Form I
- XRPD after about 25 ([4]; 155 mg in methanol): Form I
- XRPD after 7 days ([4]; 157 mg in Ethanol): Form I
- XRPD after about 25 ([4]; 157 mg in Ethanol): Form I
- XRPD after 7 days [4, 12]: new
- XRPD after about 25 [4, 12]: Form VIII
- XRPD after 7 days ([4]; 163 mg in n-heptane): Form I
- XRPD after about 25 ([4]; 163 mg in n-heptane): Form I
- XRPD after 7 days [4, 13]: Form I
- XRPD after about 25 [4, 13]: Form VI
- XRPD after about 25 ([4]; 10 g in 1-butanol): Form XIII
- XRPD after about 25 ([4]; 10 g in 1-propanol): Form XII
- XRPD after about 25 ([4]; 10 g in 2-propanol): Form XI
SMILES: CC[C@H](Nc1ncnc2[nH]cnc12)c1nc2cccc(F)c2c(=O)n1-c1ccccc1 [(S)-2-(1-(9H-purin-6-ylamino)propyl)-5-fluoro-3-phenylquinazolin-4(3H)-one]
- changes in XRPD in the hydrate screen ([1]; water activity 0.9): converted some of the hydrochloride salt to polymorphic Form I of the free form

- XRPD upon drying ([5]; upon drying): mixture of Pattern 1 and Pattern 9′
SMILES: CC[C@H](Nc1ncnc2[nH]cnc12)c1nc2cccc(F)c2c(=O)n1-c1ccccc1 [Toluene solvate, (S)-2-(1-(9H-purin-6-ylamino)propyl)-5-fluoro-3-phenylquinazolin-4(3H)-one]

- XRPD pattern after further heating ([5]; further heating at about 145° C. for about 16 hours): Pattern 9′
SMILES: CC[C@H](Nc1ncnc2[nH]cnc12)c1nc2cccc(F)c2c(=O)n1-c1ccccc1 [Pattern 9, (S)-2-(1-(9H-purin-6-ylamino)propyl)-5-fluoro-3-phenylquinazolin-4(3H)-one]

- XRPD pattern after drying ([5]; drying in a vacuum oven at about 25° C. for 6 days): Pattern 9
SMILES: CC[C@H](Nc1ncnc2[nH]cnc12)c1nc2cccc(F)c2c(=O)n1-c1ccccc1 [Pattern 1, (S)-2-(1-(9H-purin-6-ylamino)propyl)-5-fluoro-3-phenylquinazolin-4(3H)-one]
